Laboratory results taken from US8658638B2, “Mineralocorticoid receptor antagonist and methods of use” (priority 2009, dated 2014).

Tests used:
[1] = molecular target: T1, human AR (androgen receptor) (Homo sapiens, UniProt P10275); test: Steroid nuclear hormone receptor binding assay, AR; settings: [3H]-methyltrienolone, HEK293 lysate overexpressing human AR
T1 construct: expressed in transfected cells; host or cells: HEK293 (293-AR lysate)
T1 sequence (P10275 1-920): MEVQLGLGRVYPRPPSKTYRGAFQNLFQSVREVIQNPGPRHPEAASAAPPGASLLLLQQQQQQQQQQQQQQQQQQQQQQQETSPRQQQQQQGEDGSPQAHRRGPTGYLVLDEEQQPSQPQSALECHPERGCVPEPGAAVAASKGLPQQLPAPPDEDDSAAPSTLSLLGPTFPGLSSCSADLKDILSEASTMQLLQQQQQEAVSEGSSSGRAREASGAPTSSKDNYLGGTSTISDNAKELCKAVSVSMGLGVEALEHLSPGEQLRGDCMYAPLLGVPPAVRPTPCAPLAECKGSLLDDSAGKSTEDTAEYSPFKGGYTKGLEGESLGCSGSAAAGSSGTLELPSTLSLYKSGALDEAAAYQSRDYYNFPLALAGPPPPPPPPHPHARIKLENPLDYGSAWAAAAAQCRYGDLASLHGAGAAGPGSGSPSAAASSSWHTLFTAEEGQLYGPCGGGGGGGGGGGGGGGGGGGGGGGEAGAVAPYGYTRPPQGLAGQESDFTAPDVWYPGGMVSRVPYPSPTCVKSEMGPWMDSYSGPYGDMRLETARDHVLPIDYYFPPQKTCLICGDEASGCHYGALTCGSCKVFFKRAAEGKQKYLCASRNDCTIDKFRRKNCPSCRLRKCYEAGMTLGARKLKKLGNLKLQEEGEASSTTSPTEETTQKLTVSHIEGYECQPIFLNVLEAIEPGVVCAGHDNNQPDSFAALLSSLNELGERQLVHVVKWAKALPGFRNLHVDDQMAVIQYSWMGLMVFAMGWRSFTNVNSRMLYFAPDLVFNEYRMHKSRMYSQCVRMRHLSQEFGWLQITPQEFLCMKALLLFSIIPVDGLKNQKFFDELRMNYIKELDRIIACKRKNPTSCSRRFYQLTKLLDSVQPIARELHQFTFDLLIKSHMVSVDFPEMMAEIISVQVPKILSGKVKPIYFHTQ
Protocol: Cell lysates from human embryonic kidney HEK293 cells overexpressing human MR (mineralocorticoid receptor), GR (glucocorticoid receptor), AR (androgen receptor), or PR (progesterone receptor) are used for receptor-ligand competition binding assays to determine Ki values.
Briefly, steroid receptor competition binding assays are run in a buffer containing 20 mM HEPES buffer (pH=7.6), 0.2 mM EDTA, 75 mM NaCl, 1.5 mM MgCl2, 20% glycerol, 20 mM sodium molybdate, 0.2 mM DTT (dithiothreitol), 20 μg/mL aprotinin and 20 μg/mL leupeptin (assay buffer). Typically, steroid receptor binding assays include radio-labeled ligands, such as 0.25 nM [^3H]-aldosterone for MR binding, 0.7 nM [^3H]-dexamethasone for GR binding, 0.36 nM [^3H]-methyltrienolone for AR binding, and 0.29 nM [^3H]-methyltrienolone for PR binding, and either 20 μg 293-MR lysate, 20 μg 293-GR lysate, 22 μg 293-AR lysate, or 40 μg 293-PR lysate per well. Assays are typically run in 96-well format. Competing test compounds are added at various concentrations ranging from about 0.01 nM to 10 μM. Non-specific binding is determined in the presence of 500 nM aldosterone for MR binding, 500 nM dexamethasone for GR binding, or 500 nM methyltrienolone for AR and PR binding. […] After an incubation of 2 hours, plates are read in a Wallac Microbeta counter. […]

[2] = molecular target: T2, human androgen receptor (AR) (Homo sapiens, UniProt P10275); test: Nuclear hormone receptor panel screen (luciferase reporter, HEK293), AR; type: cell-based
T2 sequence (P10275 1-920): T1 sequence (P10275 1-920)
Excerpt: Aldosterone exerts it physiological effects through interaction with the mineralocorticoid receptor. Following cytoplasmic binding of aldosterone to MR, the ligand receptor complex translocates to the cell nucleus where it binds to hormone response elements on DNA to initiate expression of target genes. […] The solvents, reagents, and ligands employed in the functional assay are readily available from commercial sources, or can be prepared by one of ordinary skill in the art.
Human embryonic kidney HEK293 cells are transfected with steroid hormone receptor and reporter gene plasmids using a suitable transfection reagent such as Fugene™. […] After 24 hours incubation with test compounds, cells are lysed and luciferase activity is determined using standard techniques.
Data are fitted to a four parameter-fit logistic curve to determine EC50 values. […] IC50 values are determined similarly using antagonist mode assay data. In the antagonist mode, percent inhibitions are determined by comparing test compound activity in the presence of low concentration of agonist (0.08 nM aldosterone for MR, 0.25 nM dexamethasone for GR, 0.66 nM of methyltrienolone for AR, and 0.08 nM of promegestone for PR) to the response produced by the same low concentration of agonist in the absence of test compound.

Ki [1]: ~1.17 µM | EC50 ([2]; agonist mode): > 10 µM | IC50 ([2]; antagonist mode, 0.66 nM methyltrienolone): > 10 µM
SMILES: O=c1[nH]c2cc(/C=C3\c4ccccc4COc4cc(F)ccc43)ccc2n1[C@@H]1C[C@@H]2COCCN2C1 [Compound (I), 5-((E)-(3-fluorodibenzo[b,e]oxepin-11(6H)-ylidene)methyl)-1-((7R,8aR)-hexahydro-1H-pyrrolo[2,1-c][1,4]oxazin-7-yl)-1H-benzo[d]imidazol-2(3H)-one]
